Patent publication US9226916B2, “Pyrrolidine derivatives” (HOFFMANN-LA ROCHE INC., priority 2009, dated 2016)

Molecular target: T1, recombinant human NK3 receptor (Homo sapiens, UniProt P29371)
T1 construct: expressed in transfected cells; host or cells: HEK293 cells, transient expression; membranes
T1 sequence (P29371 1-465): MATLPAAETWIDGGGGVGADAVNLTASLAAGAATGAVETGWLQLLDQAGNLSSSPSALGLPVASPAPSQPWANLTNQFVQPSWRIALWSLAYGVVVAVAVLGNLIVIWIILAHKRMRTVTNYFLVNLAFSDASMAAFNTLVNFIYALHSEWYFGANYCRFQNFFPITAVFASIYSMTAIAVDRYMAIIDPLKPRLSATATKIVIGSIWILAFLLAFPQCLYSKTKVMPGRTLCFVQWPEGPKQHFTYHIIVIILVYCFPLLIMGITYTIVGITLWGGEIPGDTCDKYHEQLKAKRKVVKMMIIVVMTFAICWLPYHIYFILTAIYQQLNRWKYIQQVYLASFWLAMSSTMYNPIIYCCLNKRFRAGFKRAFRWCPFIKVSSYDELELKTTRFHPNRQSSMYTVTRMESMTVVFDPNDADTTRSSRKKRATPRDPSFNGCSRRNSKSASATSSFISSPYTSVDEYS
Assay: [3H]SR142801 competition binding assay
Settings: not given

SMILES	Ki
CN(C(=O)O[C@H]1CC[C@H](C)CC1)[C@@H]1CN(C(=O)C2CCN(c3ccc(C#N)cn3)CC2)C[C@H]1c1ccc(Cl)cc1 [Example 221, [(3S,4R)-4-(4-Chloro-phenyl)-1-(5′-cyano-3,4,5,6-tetrahydro-2H-[1,2′]bipyridinyl-4-carbonyl)-pyrrolidin-3-yl]-methyl-carbamic acid 4-methyl-cyclohexyl ester]	1 nM
CN(C(=O)Oc1ccc(F)cc1)[C@@H]1CN(C(=O)C2CCN(c3ncccc3C#N)CC2)C[C@H]1c1ccc(Cl)cc1 [Example 186, [(3S,4R)-4-(4-Chloro-phenyl)-1-(3′-cyano-3,4,5,6-tetrahydro-2H-[1,2′]bipyridinyl-4-carbonyl)-pyrrolidin-3-yl]-methyl-carbamic acid 4-fluoro-phenyl ester]	6 nM
CN(C(=O)Oc1ccc(Cl)cc1)[C@@H]1CN(C(=O)C2CCN(C(=O)C3(C)CC3)CC2)C[C@H]1c1ccc(Cl)c(Cl)c1 [Example 19, {(3S,4R)-4-(3,4-Dichloro-phenyl)-1-[1-(1-methyl-cyclopropanecarbonyl)-piperidine-4-carbonyl]-pyrrolidin-3-yl}-methyl-carbamic acid 4-chlorophenyl ester]	0.2 nM
CN(C(=O)Oc1ccc(F)cc1)[C@@H]1CN(C(=O)C2CCN(C(=O)C3CC(F)(F)C3)CC2)C[C@H]1c1ccc(Cl)cc1 [Example 250, {(3S,4R)-4-(4-Chloro-phenyl)-1-[1-(3,3-difluoro-cyclobutanecarbonyl)-piperidine-4-carbonyl]-pyrrolidin-3-yl}-methyl-carbamic acid 4-fluoro-phenyl Ester]	1.4 nM
CN(C(=O)Oc1ccc(F)cc1)[C@@H]1CN(C(=O)[C@H]2CC[C@@H](O)CC2)C[C@H]1c1ccc(Cl)c(Cl)c1 [Example 60, [(3S,4R)-4-(3,4-Dichloro-phenyl)-1-(cis-4-hydroxy-cyclohexanecarbonyl)-pyrrolidin-3-yl]-methyl-carbamic acid 4-fluoro-phenyl ester]	1.7 nM
CN(C(=O)OCCCC(F)(F)F)[C@@H]1CN(C(=O)C2CCN(c3ccc(C#N)cn3)CC2)C[C@H]1c1ccc(Cl)cc1 [Example 127, [(3S,4R)-4-(4-Chloro-phenyl)-1-(5′-cyano-3,4,5,6-tetrahydro-2H-[1,2′]bipyridinyl-4-carbonyl)-pyrrolidin-3-yl]-methyl-carbamic acid 4,4,4-trifluoro-butyl ester]	4 nM
Cc1ccccc1OC(=O)N(C)[C@@H]1CN(C(=O)C2CCN(c3ccc(C#N)cn3)CC2)C[C@H]1c1ccc(Cl)cc1 [Example 229, [(3S,4R)-4-(4-Chloro-phenyl)-1-(5′-cyano-3,4,5,6-tetrahydro-2H-[1,2′]bipyridinyl-4-carbonyl)-pyrrolidin-3-yl]-methyl-carbamic acid o-tolyl ester]	16.8 nM
CN(C(=O)Oc1ccc(F)cc1)[C@@H]1CN(C(=O)C2CCN(C(=O)C3CCC(=O)NC3)CC2)C[C@H]1c1ccc(F)cc1 (stereo partly drawn) [Example 291, {(3S,4R)-4-(4-Fluoro-phenyl)-1-[1-(6-oxo-piperidine-3-carbonyl)-piperidine-4-carbonyl]-pyrrolidin-3-yl}-methyl-carbamic acid 4-fluoro-phenyl ester]	144 nM
Cc1ccc(N2CCC(C(=O)N3C[C@@H](N(C)C(=O)Oc4ccc(F)cc4)[C@H](c4ccc(Cl)cc4)C3)CC2)nn1 [Example 118, {(3S,4R)-4-(4-Chloro-phenyl)-1-[1-(6-methyl-pyridazin-3-yl)-piperidine-4-carbonyl]-pyrrolidin-3-yl}-methyl-carbamic acid 4-fluoro-phenyl ester]	0.3 nM

Same assay, conditions: hNK-3 receptor affinity; membranes from HEK293 cells transiently expressing recombinant human NK3 receptor; [3H]SR142801; Cheng-Prussoff; read-out: Data Ki

SMILES	Ki
CN(C(=O)OCC1(C)CC1)[C@@H]1CN(C(=O)C2CCN(C(=O)C3(C)CC3)CC2)C[C@H]1c1ccc(Cl)c(Cl)c1 [Example 105, {(3S,4R)-4-(3,4-Dichloro-phenyl)-1-[1-(1-methyl-cyclopropanecarbonyl)-piperidine-4-carbonyl]-pyrrolidin-3-yl}-methyl-carbamic acid 1-methyl-cyclopropylmethyl ester]	70.5 nM
